Assay results: PMC11940309, “Endocrine-Disrupting Activities of Flavones on Steroid Receptors: Structural Requirements and Synthesis of Novel Flavone with Improved Estrogenic Activity” (Biomedicines, 2025)
Values joined by “and” are separate entries in the source; they are usually repeats but may differ in a detail not shown here. Identical values can stand only once. Like-named read-outs stand apart in the source and are kept apart here.

Experiments:
[1] = target: T1, human AR (Homo sapiens, UniProt P10275); test: AR-mediated induction of PSA-luciferase reporter by R1881 in HeLa13 cells; format: cell-based; conditions: for inhibition at 1 µM / inhibition at 4 µM: read-out: % Inhibition of AR-Mediated Gene Induction
T1 construct: expressed in transfected cells; host or cells: HeLa13 (HeLa 13)
T1 sequence (P10275 1-920): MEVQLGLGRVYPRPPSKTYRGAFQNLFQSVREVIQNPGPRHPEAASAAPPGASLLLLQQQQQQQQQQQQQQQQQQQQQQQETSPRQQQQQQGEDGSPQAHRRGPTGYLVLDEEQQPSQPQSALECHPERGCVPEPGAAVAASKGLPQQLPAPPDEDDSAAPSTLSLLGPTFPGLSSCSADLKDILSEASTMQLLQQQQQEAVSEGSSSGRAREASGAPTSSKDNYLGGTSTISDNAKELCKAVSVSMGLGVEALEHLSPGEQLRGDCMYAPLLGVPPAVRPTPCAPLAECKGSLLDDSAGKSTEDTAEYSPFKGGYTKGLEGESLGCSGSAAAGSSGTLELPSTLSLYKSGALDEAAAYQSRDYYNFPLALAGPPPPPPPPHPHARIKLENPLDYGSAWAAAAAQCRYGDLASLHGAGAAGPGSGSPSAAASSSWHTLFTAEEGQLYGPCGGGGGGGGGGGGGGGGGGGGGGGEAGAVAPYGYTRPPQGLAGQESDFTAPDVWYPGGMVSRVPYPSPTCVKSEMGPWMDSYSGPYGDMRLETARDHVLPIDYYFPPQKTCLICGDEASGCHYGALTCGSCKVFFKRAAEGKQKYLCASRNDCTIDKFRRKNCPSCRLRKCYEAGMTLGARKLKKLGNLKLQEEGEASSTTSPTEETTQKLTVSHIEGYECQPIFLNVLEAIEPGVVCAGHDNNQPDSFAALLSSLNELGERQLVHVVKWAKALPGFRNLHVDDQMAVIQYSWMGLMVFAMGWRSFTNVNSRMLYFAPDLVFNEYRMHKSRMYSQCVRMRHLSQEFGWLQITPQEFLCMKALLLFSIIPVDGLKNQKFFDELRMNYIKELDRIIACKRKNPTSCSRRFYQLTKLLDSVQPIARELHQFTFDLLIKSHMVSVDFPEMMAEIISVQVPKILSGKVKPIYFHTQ
Source text: (§1) The engineered T47D breast cancer cell lines employed for the assessment of flavonoid activity on glucocorticoid receptor (GR) and progesterone receptor (PR) signaling permitted the facile quantitation transcription of both an endogenous gene and a stably integrated reporter gene. […] The T47D K5pLuc cell line responds to progestins via induction of a stably integrated cytokeratin 5-luciferase reporter gene. […] For assessment of the effect of the test compounds on androgen receptor (AR) signaling, we used the HeLa13 cell line engineered to stably express human AR and a PSA-luciferase reporter gene containing a 4× multimerized PSA upstream enhancer ARE1 linked to the E4 TATA box and luciferase gene.
Experiments testing the effect of flavonoid on androgen receptor-mediated transcription employed HeLa 13 cells maintained in MEM medium supplemented with 10% FBS, 0.5 mg/mL G418, 0.05 mg/mL Hygromycin B, […], and streptomycin (100 μg/mL). For reporter gene experiments, cells were replated at a 1:5 dilution in MEM medium with 5% charcoal-stripped FBS and the antibiotics mentioned above. The medium was changed the next day. After 48 h, the cells were washed with PBSE, detached with phenol red-free trypsin, pelleted, resuspended and plated in 96 well plates as above. Hormone and flavonoid treatments were performed as described above with the HeLa 13 medium and charcoal-stripped FBS. When treated with hormone, the synthetic androgen, R1881, was used at 1.0 nM. Hormone treatment was for 20 h at which time cells were harvested for assay of luciferase.
(§2) For all cell lines, cell harvesting and the luminescence assay for alkaline phosphatase and/or luciferase were performed as previously described in detail. Each condition was performed in quadruplicate. […] Percent inhibition is 100 minus the percent induction.

[2] = tested on: estrogen receptor (ER); test: ER-mediated luciferase reporter induction in T47D KBluc cells; format: cell-based, human; conditions: for % ER Induction: relative to 1nM estradiol
Experimental: Experiments testing the effect of flavonoids on estrogen receptor-mediated transcription employed T47D KBluc cells. These cells were maintained in RPMI medium with 10% FBS, penicillin (100 U/mL), and streptomycin (100 μg/mL). For reporter gene experiments, cells were detached as above and replated at 50% confluency in phenol red-free RPMI media with 10% charcoal-stripped FBS and antibiotics (day one). All subsequent steps used phenol red-free medium and trypsin. On day three, the medium was replaced with fresh medium. On day five, cells were washed with PBSE, detached, resuspended, diluted, and replated in the phenol red-free RPMI with charcoal-stripped serum (50,000 cells per well as above).
as §2

[3] = target: T2, progesterone receptor (PR) (Homo sapiens, UniProt P06401); test: PR-mediated induction of transcription by R5020 in T47D K5pLuc cells (luciferase reporter and endogenous alkaline phosphatase); format: cell-based; conditions: T47D, R5020 1.0 nM
T2 sequence (P06401 679-933 limits assumed): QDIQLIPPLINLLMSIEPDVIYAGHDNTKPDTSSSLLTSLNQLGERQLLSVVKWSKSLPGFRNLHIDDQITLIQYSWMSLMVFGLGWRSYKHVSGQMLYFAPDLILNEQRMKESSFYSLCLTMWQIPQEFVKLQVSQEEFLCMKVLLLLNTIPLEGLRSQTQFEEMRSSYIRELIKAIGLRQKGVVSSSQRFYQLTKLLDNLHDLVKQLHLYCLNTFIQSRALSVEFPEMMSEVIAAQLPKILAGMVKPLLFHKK
Source text: as §1
Experiments testing the effect of flavonoids on progesterone receptor-mediated transcription employed T47D K5pluc cells. The protocol was the same as that for T47D (A1-2) cells except the medium was Dulbecco’s Modified Eagle’s Medium supplemented with 10% FBS, insulin (10 nM), puromycin 200 ng/mL, nonessential amino acids, penicillin (100 U/mL), and streptomycin (100 μg/mL). When treated with hormone, the synthetic progestin, R5020, was used at 1.0 nM. Hormone treatment was for 20 h at which time cells were harvested for assay of alkaline phosphatase and luciferase.
as §2

[4] = target: T3, glucocorticoid receptor (GR) (Rattus norvegicus, UniProt P06536); test: GR-mediated induction of transcription by dexamethasone in T47D (A1-2) cells (luciferase reporter and endogenous alkaline phosphatase); format: cell-based, human; conditions: T47D, dexamethasone 1.0 nM, read-out: % Inhibition of GR Induction
T3 construct: host or cells: T47D (A1-2)
T3 sequence (P06536 1-795): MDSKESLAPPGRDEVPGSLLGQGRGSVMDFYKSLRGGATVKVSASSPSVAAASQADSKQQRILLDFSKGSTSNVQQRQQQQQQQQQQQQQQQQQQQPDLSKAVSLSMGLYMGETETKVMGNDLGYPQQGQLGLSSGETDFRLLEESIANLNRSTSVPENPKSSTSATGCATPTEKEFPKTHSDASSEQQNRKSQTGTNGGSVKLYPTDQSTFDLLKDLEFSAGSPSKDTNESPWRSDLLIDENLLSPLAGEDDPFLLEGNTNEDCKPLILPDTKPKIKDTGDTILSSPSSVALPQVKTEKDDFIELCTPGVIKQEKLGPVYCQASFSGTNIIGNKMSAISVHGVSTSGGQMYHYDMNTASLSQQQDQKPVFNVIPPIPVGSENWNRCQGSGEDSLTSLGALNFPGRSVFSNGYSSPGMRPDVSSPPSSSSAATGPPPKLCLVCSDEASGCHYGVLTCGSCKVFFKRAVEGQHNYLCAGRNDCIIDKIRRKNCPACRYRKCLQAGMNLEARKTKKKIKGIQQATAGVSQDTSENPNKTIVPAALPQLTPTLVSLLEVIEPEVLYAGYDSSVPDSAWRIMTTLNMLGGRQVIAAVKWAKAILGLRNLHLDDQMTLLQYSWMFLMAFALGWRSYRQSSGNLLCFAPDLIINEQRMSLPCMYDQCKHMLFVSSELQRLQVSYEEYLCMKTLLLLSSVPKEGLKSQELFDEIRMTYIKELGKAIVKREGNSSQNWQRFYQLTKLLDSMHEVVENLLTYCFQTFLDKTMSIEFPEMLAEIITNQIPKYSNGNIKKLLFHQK
Source text: as §1
For assessment of the effect of flavones on glucocorticoid receptors, T47D (A1-2) cells were maintained in Minimal Essential Medium, 10% Fetal Bovine Serum (FBS), 0.2 mg/mL G418, penicillin (100 U/mL), and streptomycin (100 μg/mL). For experiments, medium was removed, and cultures rinsed with Phosphate-Buffered Saline (PBS) + 1.0 mM EDTA (PBSE), detached with trypsin, pelleted, and resuspended in medium to a concentration of 500,000 cells/mL. Aliquots of cell suspension, 100 microliters/well, were transferred into a 96-well, white, flat-bottomed plate and allowed to attach for 24 h. The following day, each well was treated with a 50 microliter aliquot of a test compound diluted in medium. Controls received medium containing DMSO diluted in the same way. For hormone treatment, dexamethasone was diluted in medium and added as 50 microliter aliquots so that the final volume in each well was 200 microliters. The final concentration of dexamethasone was 1.0 nM. Controls received medium without hormone. Hormone treatment was for 20 h at which time cells were harvested for assay of alkaline phosphatase and luciferase.
as §2

Compound | inhibition at 1 µM ([1]; 1 µM, R1881 1.0 nM) | inhibition at 4 µM ([1]; 4 µM, R1881 1.0 nM) | % ER Induction ([2]; 1 µM) | % ER Induction ([2]; 4 µM) | other results
O=c1c(O)c(-c2ccc(O)cc2)oc2ccccc12 [3,4′-dihydroxyflavone] | 3% | 27% | 13% | 125% | –
O=c1c(O)c(-c2ccc(O)c(O)c2)oc2cc(O)cc(O)c12 [3,5,7,3′,4′-pentahydroxyflavone] | – | – | 3% | 12% | inhibition at 4 µM ([3]; AP (alkaline phosphatase)): 52%; inhibition at 4 µM ([3]; LUC (luciferase)): 47%; inhibition at 8 µM ([3]; AP (alkaline phosphatase)): 79%; inhibition at 8 µM ([3]; LUC (luciferase)): 78%
O=c1c(O)c(-c2ccccc2)oc2ccc(O)cc12 [3,6-dihydroxyflavone] | 35% | 52% | 55% | 94% | –
O=c1c(O)c(-c2ccc(O)cc2)oc2cc(O)ccc12 [3,7,4′-trihydroxyflavone] | -6% | 39% | 86% | 114% | –
COc1ccc(-c2oc3ccc(OC)cc3c(=O)c2O)cc1 [3-hydroxy, 6,4′-dimethoxyflavone] | -17% | 41% | 2% | 3% | –
O=C1CC(c2ccc(O)cc2)Oc2ccccc21 (stereo not shown) [4′-hydroxyflavanone] | – | – | 12% | 109% | inhibition at 1 µM [1]: -8%; inhibition at 4 µM [1]: 0%
COc1ccc(-c2cc(=O)c3c(OC)cccc3o2)cc1 [5,4′-methoxyflavone] | – | – | 1% | 31% | % Inhibition of AR-Mediated Gene Induction ([1]; 1 µM, R1881 1.0 nM): 4%; % Inhibition of AR-Mediated Gene Induction ([1]; 4 µM, R1881 1.0 nM): 53%
O=c1cc(-c2ccc(O)cc2)oc2cc(O)cc(O)c12 [5,7,4′-trihydroxyflavone] | – | – | – | – | inhibition at 4 µM ([4]; AP (alkaline phosphatase)): -19%; inhibition at 4 µM ([4]; LUC (luciferase)): 6%; inhibition at 8 µM ([4]; AP (alkaline phosphatase)): 49%; inhibition at 8 µM ([4]; LUC (luciferase)): 35%
O=c1cc(-c2ccccc2)oc2cccc(O)c12 [5-hydroxyflavone] | – | – | 0% | 4% | inhibition at 4 µM ([3]; AP (alkaline phosphatase)): 26%; inhibition at 4 µM ([3]; LUC (luciferase)): -23%; inhibition at 8 µM ([3]; AP (alkaline phosphatase)): 61%; inhibition at 8 µM ([3]; LUC (luciferase)): 45%; inhibition at 4 µM ([4]; AP (alkaline phosphatase)): 38%; inhibition at 4 µM ([4]; LUC (luciferase)): -9%; inhibition at 8 µM ([4]; AP (alkaline phosphatase)): 12%; inhibition at 8 µM ([4]; LUC (luciferase)): -30%
COc1cccc2oc(-c3ccc(O)cc3)cc(=O)c12 [5-methoxy,4′-hydroxyflavone] | -4% | 34% | −2% | 10% | –
COc1ccc(-c2cc(=O)c3cc(O)ccc3o2)cc1 [6-hydroxy,4′-methoxyflavone] | 32% | 39% | 63% | 131% | –
O=C1CC(c2ccccc2)Oc2ccc(O)cc21 (stereo not shown) [6-hydroxyflavanone] | -8% | 22% | 15% | 111% | –
C[C@]12CC[C@@H]3c4ccc(O)cc4CC[C@H]3[C@@H]1CC[C@@H]2O [17β-estradiol] | – | – | – | – | potency relative to the 6,4′-dihydroxyflavones ([2]; in the assays used here): over 1000 fold
Cc1c(-c2ccc(O)cc2)oc2ccc(O)cc2c1=O [compound 8, 3-methyl 6,4′-dihydroxyflavone] | – | – | – | – | increase of EC50 relative to 6,4′-dihydroxyflavone [2]: ten-fold or more; reporter gene activity compared with an optimal dose of estradiol ([2]; 1.0 micromolar): super-inducer
O=c1c(F)c(-c2ccc(O)cc2)oc2ccc(O)cc12 [compound 14, 3-fluoro, 6,4′-dihydroxyflavone] | – | – | – | – | EC50 compared to that of genistein [2]: comparable; EC50 ([2]; read-out: EC50, estrogen agonist): ~0.03 µM and 0.03 to 0.1 µM
